# Source: patent US5770407A, “Process for preparing nucleotide inhibitors of glycosyltransferases” (The Scripps Research Institute, priority 1996, dated 1998)
# Entries after “also recorded” stand apart in the source; their conditions may differ. Read-outs that look alike come from different tables or passages of the source.
# Assays:
# [1] = system: β 1,4-galactosyltransferase; assay: Inhibition study of β-1,4-galactosyltransferase (UDP-[3H]Gal transfer to N-acetylglucosamine); type: biochemical, bovine milk; conditions: for mode of inhibition of β-1,4-galactosyltransferase: HEPES 100 mM, pH 7.4
# Protocol: All assays contained 10 mM of MnCl2, 2 mM of UDP-[^3 H]Gal, 5 μL of 0.125 mg/mL galactosyltransferase, 0.5-4 mM of N-acetylglucosamine, 0-0.05 mM of 1, and 100 mM of HEPES buffer (pH 7.4) in a total assay volume of 0.05 mL. Assay was performed at 25° C. Reactions were halted with the addition of 0.3 mL of distilled, de-ionized water after 10 min. The reaction mixtures were passed through a pipette column (2 cm) of Sepadex QAE A-25 with 1 mL of distilled, de-ionized water. The obtained fractions were collected in 10 mL of ScintiVerse I scintillation cocktail. A control reaction without enzyme was used to establish the background, non-enzymatic cleavage rate. A typical control reaction of 41754 cpm UDP-[^3 H]Gal would result in 890 cpm of non-enzymatic column flow through.
# [2] = system: β 1,4-galactosyltransferase; conditions: literature: Morrison, Ebner J. Biol. Chem. 1971; read-out: Km of GlcNAc (lit); cited from earlier work
# [3] = molecular target: T1, α-1,3-fucosyltransferase V (Homo sapiens, UniProt Q11128); assay: Inhibition of α-1,3-fucosyltransferase V (FucT V), GDP-Fuc varied at fixed inhibitor concentrations; type: biochemical; conditions: for mode of inhibition of FucT V: GDP-Fuc varied, constant LacNAc acceptor, listed as GDP-2F-Fuc
# T1 construct: made in house
# T1 sequence (Q11128 1-374): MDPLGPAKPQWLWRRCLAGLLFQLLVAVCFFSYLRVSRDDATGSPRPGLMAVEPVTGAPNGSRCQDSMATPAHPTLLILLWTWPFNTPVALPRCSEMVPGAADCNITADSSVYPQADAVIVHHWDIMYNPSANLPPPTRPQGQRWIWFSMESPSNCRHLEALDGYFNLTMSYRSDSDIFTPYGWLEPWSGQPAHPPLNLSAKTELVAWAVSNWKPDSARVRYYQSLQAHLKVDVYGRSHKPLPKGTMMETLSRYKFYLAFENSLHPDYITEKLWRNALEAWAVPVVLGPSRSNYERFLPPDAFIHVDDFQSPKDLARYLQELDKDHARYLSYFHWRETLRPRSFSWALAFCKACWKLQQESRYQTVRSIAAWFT
# Protocol: GDP-Fuc concentration was varied ([…]) and the acceptor sugar, LacNAc-b-O--(CH2)5 CO2 CH3, was kept at twice its km level, 0.6 mM. (Inset) A replot of the slopes as a function of GDP-2F-Fuc concentration is presented as a graphical Ki determination (Ki =x axis intercept).
# (§1) The interaction of GDP-2F-Fuc with FucT V was evaluated. The mode of inhibition of FucT V by GDP-2F-Fuc was evaluated by varying the GDP-Fuc concentrations at fixed GDP-2F-Fuc concentrations at a constant LacNAc-b-O--(CH2)5 CO2 CH3 concentration. […] Pre incubation of 0.010 mM GDP-2F-Fuc with the FucT V in the presence of LacNAc-b-O--(CH2)5 CO2 CH3 and MnCl2 was performed for 0-80 minutes. The reactions were initiated with GDP-Fuc and allowed to react for 30 minutes. The percent inhibition remained constant at 58% which is expected for reversible inhibition. If GDP-2F-Fuc was either an inactivator of a slow substrate, then the inhibition would either increase or decrease as a function of time.
# Anhydrous pyridine was purchased from Aldrich and used without further purification. N-Acetyllactosamine, Dowex 1-X8, MES, pyruvate kinase, lactate dehydrogenase, PEP, GDP, NADH, guanosine 5'-monophospho-morpholidate 4-morpholine-N,N'-dicyclohexylcarboxamidine salt, GDP-Fuc, and cacodylic acid were purchased from Sigma. Guanosine 5'-diphospho-[U-^14 C]-b-L-fucose was purchased from Amersham Life Science. ScintiVerseI scintillation cocktail and MnCl2.4 H2 O were purchased from Fisher Scientific Company. Protein concentrations were determined with the Coomassie protein staining reagent with albumin standards as purchased from Pierce. The scintillation counter used was the Beckman LS 3801. Fluorescence was measured on a Hitachi F2000 Fluorescence Spectrophotometer. Human a-1,3-fucosyltransferase and LacNAc-b-O--(CH2)5 CO2 CH3 were prepared according to published procedures (Murray et al.(1996) Biochemistry 35, 11183-11195.).
# GDP-Fuc concentration was varied ([…]) at fixed concentrations of GDP-2F-Fuc ([…]), and the acceptor sugar, LacNAc-b-O-(CH2)5 CO2 CH3, was kept at twice its Km level, 0.6 mM. Each assay contained 0.3 munit of FucT V and 10 mM MnCl2 in a 100 mM MES buffer (pH 6.0). Reactions were 30 minutes at room temperature.
# [4] = molecular target: T2, FucT V (Homo sapiens, UniProt Q11128); assay: Pre-incubation of GDP-2F-Fuc with FucT V (slow substrate / inactivator test); type: biochemical
# T2 sequence (Q11128 1-374): T1 sequence (Q11128 1-374)
# Protocol: as §1
# A 0.350 mL solution that contained 10 mM MnCl2 , 2.1 munits FucT V, 0.30 mM LacNAc-b-O--(CH2)5 CO2 CH3, 0.010 mM GDP-2F-Fuc, and 100 mM MES (pH 6.0). This solution was subject to incubation at room temperature for various time periods (0, 3, 10, 20, 30, 60, 80 min). After the incubation time, a 0.050 mL aliquot was removed and GDP-[U-^14 C]-fucose was added to a final concentration of 0.050 mM to initiate the fucosyltransfer reaction. After a 30 minute reaction time period, the solution was passed through a Dowex 1 column and the amount of product determined.
# [5] = system: β 1,4-galactosyltransferase; conditions: previous observation, Wong 1992; Srivastava 1993; cited from earlier work
smiles,measurement,setting,value
"CC(=O)N[C@H]1C(O)O[C@H](CO)[C@@H](O)[C@@H]1O (stereo partly shown) [GlcNAc, N-acetylglucosamine, reference compound]",Vmax,"[1]; acceptor GlcNAc, HEPES pH 7.4",0.14 ± 0.01 µmol/min
same,Km,"[1]; β 1,4-galactosyltransferase, HEPES pH 7.4, read-out: Km of GlcNAc",5.3 ± 0.5 mM
same,Km,[2],6 mM
"C[C@@H]1O[C@H](OP(=O)(O)OP(=O)(O)OC[C@H]2O[C@@H](n3cnc4c(=O)[nH]c(N)nc43)[C@H](O)[C@@H]2O)[C@@H](F)[C@H](O)[C@@H]1O [Compound 21, Guanosine 5'-diphospho-2-deoxy-2-fluoro-β-L-fucose]",mode of inhibition of FucT V,[3],potent competitive inhibitor; also recorded: competitive inhibition pattern
same,mode of inhibition of FucT V,[3]; 21,potent competitive inhibitor
same,relative potency as FucT V inhibitor,[3]; compared with inhibitors known to date,most potent inhibitor of this enzyme to date
same,Ki,"[3]; α-1,3-fucosyltransferase V, summary and description",4.2 µM
same,percent inhibition after pre-incubation,"[4]; 0.010 mM GDP-2F-Fuc, pre-incubation 0-80 minutes, 30 minutes reaction, remained constant",58%
same,effect of pre-incubation on the potency of inhibition,[4]; incubation with FucT V and acceptor prior to GDP-Fuc,no effect
same,slow substrate or inactivator behaviour,"[4]; pre-incubation with FucT V, acceptor and MnCl2 before GDP-Fuc, listed as GDP-2F-Fuc",not a slow substrate or an inactivator; also recorded: neither an inactivator nor a slow substrate
"O=c1ccn([C@@H]2O[C@H](COP(=O)(O)OP(=O)(O)O[C@H]3O[C@H](CO)[C@H](O)[C@H](O)[C@H]3F)[C@@H](O)[C@H]2O)c(=O)[nH]1 [Compound 1, Uridine 5'-diphospho-2-deoxy-2-fluoro-α-D-galactose]","mode of inhibition of β-1,4-galactosyltransferase",[1],competitive inhibitor
same,"mode of inhibition of β-1,4-galactosyltransferase","[1]; listed as UDP-2F-Gal, 1",potent competitive inhibitor
same,"mode of inhibition of β-1,4-galactosyltransferase",[1]; listed as UDP-2FGal,competitive inhibitor
same,"mode of inhibition of β-1,4-galactosyltransferase",[1]; listed as UDP-2FGal 1,competitive inhibition
same,Ki,"[1]; competitive inhibition, UDP-Gal, GlcNAc, Mn2+ 10 mM, HEPES 100 mM pH 7.4, 25° C.",41 µM
O=c1ccn([C@@H]2O[C@H](COP(=O)(O)OP(=O)(O)O[C@@H]3C[C@@H](O)[C@@H](O)[C@@H](CO)O3)[C@@H](O)[C@H]2O)c(=O)[nH]1 [2-deoxy derivative],substrate quality for the transferase,[5],good substrate
